In patent US12655156B2, “Oxadiazolopyrazines and oxadiazolopyridines useful as mitochondrial uncouplers” (Virginia Tech Intellectual Properties, Inc., priority 2018, dated 2026):

How the values were obtained:
[1] = system: humans; details: patients consuming ~300 mg/d, over several months, without changes in food intake; cited from earlier work
[2] = system: Male C57BL/6J mice on western diet; assay: Diet induced obesity reversal mouse study; assay type: in vivo; details: WD containing 1-112, ~60 mg/kg/day
From the text: FIGS. 2A-2C. Diet induced obesity reversal data, for mice given a regular chow diet, a Western diet, or a Western diet plus compound 1-112. FIG. 2A, Body mass versus time; FIG. 2B, fat mass (measured by EchoMRI) versus time; FIG. 2C, food intake (last 14 days) versus time.
Male C57BL/6J mice aged 3 months were assigned to either normal chow diet (Chow, n=5) or western diet (WD, n=10) for 28 days. After 28 days half of the WD group were switched to WD containing compound 1-112 at a concentration resulting in consumption of ˜60 mg/kg/day 1-112 (1-112 60 mpk). Body mass (A), fat mass (measured by EchoMRI (B)), and food intake (C, for the final 14 days) were recorded as indicated.

[3] = system: whole cells (NMuLi, C2C12, and L6 cells, isolated cardiomyocytes, human primary fibroblasts); assay: Oxygen consumption rate (OCR) in whole cells, Seahorse XF-24 Flux Analyzer; assay type: cell-based; details: increase in OCR; binned EC50 values
Method in brief: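 NMuLi, C2C12 and L6 cells (3.5×10^4/well), cardiomyocytes (4×10^4/well) and human primary fibroblasts (1.1×10^4/well) adhered 24 h, then equilibrated 30 min at 37° C in unbuffered DMEM with pyruvate and glutamine, pH 7.4. Compounds injected during run; OCR read over 2 min periods. EC50 for OCR increase, binned.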

| SMILES | Average weight loss [1] [pounds per week] | Body mass ([2]; after 28 days of WD) | Fat mass (measured by EchoMRI) ([2]; after 28 days of WD) | Food intake ([2]; final 14 days) | EC50 [3] [µM] |
| --- | --- | --- | --- | --- | --- |
| O=[N+]([O-])c1ccc(O)c([N+](=O)[O-])c1 [DNP, 2,4-dinitrophenol] | 1.5 |  |  |  |  |
| Oc1nc2nonc2nc1Nc1ccc(-c2ccc(F)cc2)cc1 [1-112, 6-((4′-fluoro-[1,1′-biphenyl]-4-yl)amino)-[1,2,5]oxadiazolo[3,4-b]pyrazin-5-ol] |  | lost body weight | lost body weight and fat mass | without a significant change in food intake | ≤ 5 |
